Measured values taken from patent US8975398B2, “NAMPT inhibitors” (AbbVie Inc., priority 2012, dated 2015).

Columns and labels:
NAMPT = NAMPT (Homo sapiens, UniProt P43490); experiment: Time-Resolved Fluorescence Resonance Energy Transfer (TR-FRET) Binding Assay of NAMPT with PRPP; details: 2 nM NAMPT, 2 nM probe, 200 uM PRPP and 2.5 mM ATP, equilibrated 16 hours
Procedure, shortened: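 Binding measured by TR-FRET after a 16-hour equilibration meant to permit enzymatic compound modification. Substrates present at 200 uM PRPP and 2.5 mM ATP, with 2 nM enzyme, 2 nM probe, 1 nM Tb-anti-His antibody and 2% DMSO final.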

[1] = biological target: NAMPT (human, recombinant, C-terminally His-tagged) (Homo sapiens, UniProt P43490); experiment: Time-Resolved Fluorescence Resonance Energy Transfer (TR-FRET) Binding Assay of NAMPT; details: 6.8 nM NAMPT, 200 nM probe, equilibrated 3 hours, absence of substrates
Chain of NAMPT (human, recombinant, C-terminally His-tagged) (P43490 whole entry): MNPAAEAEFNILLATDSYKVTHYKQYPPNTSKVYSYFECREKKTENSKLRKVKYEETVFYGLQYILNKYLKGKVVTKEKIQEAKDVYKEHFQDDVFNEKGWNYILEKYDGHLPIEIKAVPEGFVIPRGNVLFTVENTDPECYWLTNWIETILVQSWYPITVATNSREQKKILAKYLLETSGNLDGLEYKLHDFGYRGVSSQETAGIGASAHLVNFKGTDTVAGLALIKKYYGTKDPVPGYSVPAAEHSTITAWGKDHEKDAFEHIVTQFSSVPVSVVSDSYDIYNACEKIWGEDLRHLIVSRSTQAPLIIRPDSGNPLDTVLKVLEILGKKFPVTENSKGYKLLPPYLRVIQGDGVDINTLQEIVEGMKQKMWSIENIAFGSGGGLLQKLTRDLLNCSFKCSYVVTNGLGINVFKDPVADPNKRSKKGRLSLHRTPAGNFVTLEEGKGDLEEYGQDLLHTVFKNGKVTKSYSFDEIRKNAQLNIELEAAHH
Procedure, shortened: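 Probe displacement measured by TR-FRET (Ex 337 nm; 520/495 nm ratio) after 3 h room-temperature equilibration of compound with 6.8 nM His-tagged human NAMPT, 1 nM Tb-anti-His antibody and 200 nM Oregon Green 488 nicotinamide-site probe, pH 7.5 HEPES buffer, 2% DMSO. Control-normalized data fit four-parameter logistic for IC50.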

Chain of NAMPT (P43490 whole entry): as above

IC50 (NAMPT) [nM]	IC50 [1] [nM]	Structure (SMILES)
54	40.2	CCC(C)(C)C(=O)N1CCC(c2ccc(NC(=O)C3CN(c4cccnc4C)C3)cc2)CC1 [Example 193, N-{4-[1-(2,2-dimethylbutanoyl)piperidin-4-yl]phenyl}-1-(2-methylpyridin-3-yl)azetidine-3-carboxamide]
0.817	82.6	CCC(C)(C)C(=O)N1CCC(Oc2ccc(NC(=O)C3CN(c4cccnn4)C3)cc2)CC1 [Example 248, N-(4-{[1-(2,2-dimethylbutanoyl)piperidin-4-yl]oxy}phenyl)-1-(pyridazin-3-yl)azetidine-3-carboxamide]
0.522	50	CSCCC(=O)N1CCC(c2ccc(NC(=O)C3CN(c4cccnn4)C3)cc2)CC1 [Example 337, N-(4-{1-[3-(methylsulfanyl)propanoyl]piperidin-4-yl}phenyl)-1-(pyridazin-3-yl)azetidine-3-carboxamide]
15.9	37.7	CC[C@H](C)C(=O)N1CCC(Oc2ccc(NC(=O)C3CN(c4ccnnc4)C3)cc2)CC1 [Example 307, N-[4-({1-[(2S)-2-methylbutanoyl]piperidin-4-yl}oxy)phenyl]-1-(pyridazin-4-yl)azetidine-3-carboxamide]
0.859	103	CC(=O)N1CCC(C(=O)N2CCC(c3ccc(NC(=O)C4CN(c5cccnn5)C4)cc3)CC2)CC1 [Example 383, N-(4-{1-[(1-acetylpiperidin-4-yl)carbonyl]piperidin-4-yl}phenyl)-1-(pyridazin-3-yl)azetidine-3-carboxamide]
0.78	69.2	CC(C)(C)CC(=O)N1CCC(Oc2ccc(NC(=O)C3CN(c4cccnc4)C3)cc2)CC1 [Example 41, N-(4-{[1-(3,3-dimethylbutanoyl)piperidin-4-yl]oxy}phenyl)-1-(pyridin-3-yl)azetidine-3-carboxamide]
122	266	Cc1ncccc1N1CC(C(=O)Nc2ccc(C3CCN(C(=O)c4cccc(Cl)c4)CC3)cc2)C1 [Example 153, N-{4-[1-(3-chlorobenzoyl)piperidin-4-yl]phenyl}-1-(2-methylpyridin-3-yl)azetidine-3-carboxamide]
1.39	151	O=C(Nc1ccc(OC2CCN(C(=O)c3cccc(OC(F)(F)F)c3)CC2)cc1)C1CN(c2cccnn2)C1 [Example 224, 1-(pyridazin-3-yl)-N-[4-({1-[3-(trifluoromethoxy)benzoyl]piperidin-4-yl}oxy)phenyl]azetidine-3-carboxamide]
34.4	33.1	O=C(Nc1ccc(OC2CN(C(=O)c3ccc(F)cc3F)C2)cc1)C1CN(c2ccnnc2)C1 [Example 200, N-(4-{[1-(2,4-difluorobenzoyl)azetidin-3-yl]oxy}phenyl)-1-(pyridazin-4-yl)azetidine-3-carboxamide]
90	383	CC(=O)N1CCC(Oc2ccc(NC(=O)C3CN(c4ccnnc4)C3)cc2)CC1 [Example 282, N-{4-[(1-acetylpiperidin-4-yl)oxy]phenyl}-1-(pyridazin-4-yl)azetidine-3-carboxamide]
0.284	10.2	CC[C@H](C)C(=O)N1CCC(Oc2ccc(NC(=O)C3CN(c4cccnc4)C3)cc2)CC1 [Example 32, N-[4-({1-[(2S)-2-methylbutanoyl]piperidin-4-yl}oxy)phenyl]-1-(pyridin-3-yl)azetidine-3-carboxamide]
0.6	59.9	O=C(Nc1ccc(OC2CCN(C(=O)c3cccs3)CC2)cc1)C1CN(c2cccnn2)C1 [Example 249, 1-(pyridazin-3-yl)-N-(4-{[1-(thiophen-2-ylcarbonyl)piperidin-4-yl]oxy}phenyl)azetidine-3-carboxamide]
49.6	117	O=C(Nc1ccc(OC2CN(C(=O)C3CCOC3)C2)cc1)C1CN(c2ccnnc2)C1 (centres unmarked) [Example 208, 1-(pyridazin-4-yl)-N-(4-{[1-(tetrahydrofuran-3-ylcarbonyl)azetidin-3-yl]oxy}phenyl)azetidine-3-carboxamide]
0.886	71.4	CCCCC(=O)N1CCC(Oc2ccc(NC(=O)C3CN(c4cccnc4)C3)cc2)CC1 [Example 34, N-{4-[(1-pentanoylpiperidin-4-yl)oxy]phenyl}-1-(pyridin-3-yl)azetidine-3-carboxamide]
23.7	62.9	O=C(Nc1ccc(OC2CN(C(=O)C3CCC3)C2)cc1)C1CN(c2ccnnc2)C1 [Example 261, N-(4-{[1-(cyclobutylcarbonyl)azetidin-3-yl]oxy}phenyl)-1-(pyridazin-4-yl)azetidine-3-carboxamide]
26.9	6.91	Cc1ncccc1N1CC(C(=O)Nc2ccc(C3CCN(C(=O)c4ccco4)CC3)cc2)C1 [Example 189, N-{4-[1-(furan-2-ylcarbonyl)piperidin-4-yl]phenyl}-1-(2-methylpyridin-3-yl)azetidine-3-carboxamide]

IC50 (NAMPT) [nM]	IC50 [1] [nM]	Structure (SMILES)
1.03	215	O=C(Nc1ccc(OC2CCN(C(=O)c3cccc(C(F)(F)F)c3)CC2)cc1)C1CN(c2cccnn2)C1 [Example 222, 1-(pyridazin-3-yl)-N-[4-({1-[3-(trifluoromethyl)benzoyl]piperidin-4-yl}oxy)phenyl]azetidine-3-carboxamide]
86.7	141	CC(C)(O)C(=O)N1CC(Oc2ccc(NC(=O)C3CN(c4ccnnc4)C3)cc2)C1 [Example 207, N-(4-{[1-(2-hydroxy-2-methylpropanoyl)azetidin-3-yl]oxy}phenyl)-1-(pyridazin-4-yl)azetidine-3-carboxamide]
0.882	40.1	O=C(Nc1ccc(OC2CCN(C(=O)CC3C[C@@H]4CC[C@H]3C4)CC2)cc1)C1CN(c2cccnc2)C1 (stereo partly drawn) [Example 36, N-[4-({1-[(1S,4R)-bicyclo[2.2.1]hept-2-ylacetyl]piperidin-4-yl}oxy)phenyl]-1-(pyridin-3-yl)azetidine-3-carboxamide]
0.468	3.22	O=C(Nc1ccc(C2CCN(C(=O)c3cccs3)CC2)cc1)C1CN(c2cccnn2)C1 [Example 376, 1-(pyridazin-3-yl)-N-{4-[1-(thiophen-2-ylcarbonyl)piperidin-4-yl]phenyl}azetidine-3-carboxamide]
170	286	Cc1ncccc1N1CC(C(=O)Nc2ccc(C3CCN(C(=O)CCC(F)(F)F)CC3)cc2)C1 [Example 172, 1-(2-methylpyridin-3-yl)-N-{4-[1-(4,4,4-trifluorobutanoyl)piperidin-4-yl]phenyl}azetidine-3-carboxamide]
0.445	21.8	O=C(Nc1ccc(C2CCN(C(=O)C3CCCC3)CC2)cc1)C1CN(c2cccnc2)C1 [Example 138, N-{4-[1-(cyclopentylcarbonyl)piperidin-4-yl]phenyl}-1-(pyridin-3-yl)azetidine-3-carboxamide]
63.2	125	O=C(Nc1ccc(OC2CCN(C(=O)c3ccc(C(F)(F)F)cc3)CC2)cc1)C1CN(c2ccnnc2)C1 [Example 287, 1-(pyridazin-4-yl)-N-[4-({1-[4-(trifluoromethyl)benzoyl]piperidin-4-yl}oxy)phenyl]azetidine-3-carboxamide]
0.735	33.7	O=C(Nc1ccc(C2CCN(C(=O)Cc3cccc(F)c3)CC2)cc1)C1CN(c2cccnn2)C1 [Example 367, N-(4-{1-[(3-fluorophenyl)acetyl]piperidin-4-yl}phenyl)-1-(pyridazin-3-yl)azetidine-3-carboxamide]
62.6	122	CCCC(=O)N1CCC(c2ccc(NC(=O)C3CN(c4cccnc4C)C3)cc2)CC1 [Example 194, N-[4-(1-butanoylpiperidin-4-yl)phenyl]-1-(2-methylpyridin-3-yl)azetidine-3-carboxamide]
0.518	34.5	O=C(Nc1ccc(C2CCN(C(=O)[C@@H]3CCCO3)CC2)cc1)C1CN(c2cccnc2)C1 [Example 10, 1-(pyridin-3-yl)-N-(4-{1-[(2S)-tetrahydrofuran-2-ylcarbonyl]piperidin-4-yl}phenyl)azetidine-3-carboxamide]
0.554	1170	CC[C@H](C)C(=O)N1CCC(Oc2ccc(NC(=O)[C@H]3CCN(c4cccnc4)C3)cc2)CC1 [Example 19, (3S)-N-[4-({1-[(2S)-2-methylbutanoyl]piperidin-4-yl}oxy)phenyl]-1-(pyridin-3-yl)pyrrolidine-3-carboxamide]
131	36.6	CC(C)(O)C(=O)N1CCC(c2ccc(NC(=O)C3CN(c4cnccc4C#N)C3)cc2)CC1 [Example 97, 1-(4-cyanopyridin-3-yl)-N-{4-[1-(2-hydroxy-2-methylpropanoyl)piperidin-4-yl]phenyl}azetidine-3-carboxamide]
0.44	1920	CC(C)CN1CCC(Oc2ccc(NC(=O)C3CN(c4cccnc4)C3)cc2)CC1 [Example 76, N-(4-{[1-(2-methylpropyl)piperidin-4-yl]oxy}phenyl)-1-(pyridin-3-yl)azetidine-3-carboxamide]
8.87	11	CC(C)(C)CC(=O)N1CCC(c2ccc(NC(=O)C3CN(c4ccnnc4)C3)cc2)CC1 [Example 140, N-{4-[1-(3,3-dimethylbutanoyl)piperidin-4-yl]phenyl}-1-(pyridazin-4-yl)azetidine-3-carboxamide]
0.866	91.6	CC1CC1C(=O)N1CCC(Oc2ccc(NC(=O)C3CN(c4cccnc4)C3)cc2)CC1 (centres unmarked) [Example 35, N-[4-({1-[(2-methylcyclopropyl)carbonyl]piperidin-4-yl}oxy)phenyl]-1-(pyridin-3-yl)azetidine-3-carboxamide]
